Results as given in US20040121946A9, “Inducing cellular immune responses to her2/neu using peptide and nucleic acid compositions” (priority 2002, published 2004).
Like-named read-outs stand apart in the source and are kept apart here.

Columns and labels:
DRB1*1501 (DR2w2β1) = DRB1*1501 (DR2w2β1) (Homo sapiens, UniProt P01903+P01911); assay: HLA class II peptide binding assay, purified HLA; details: for DR2wB1 binding data: Table XIX, DR supermotif peptides
DRB1*0802 (DR8w2) = DRB1*0802 (DR8w2) (Homo sapiens, UniProt P01903+P01911, A100R/A103L/A169T/F76Y/H45Y/I96F/K41T/L162R/M171V/P40S/Q125H/Q178H/Q39Y/Q99D/R218S/R42G/S66Y/V115G/W38E); assay: HLA class II peptide binding assay, purified HLA; details: for DR8w2 binding data: unit not given
DRB1*1101 (DR5w11) = DRB1*1101 (DR5w11) (Homo sapiens, UniProt P01903+P01911, A100R/A169T/A87E/I96F/K41T/L162R/M171V/P40S/Q125H/Q178H/Q39Y/Q99D/R42S/S66Y/T262R/V115G/W38E); assay: HLA class II peptide binding assay, purified HLA; details: for DR5w11 binding data: unit not given
DRB5*0101 (DR2w2β2) = DRB5*0101 (DR2w2β2) (Homo sapiens, UniProt P01903+Q30154); assay: HLA class II peptide binding assay, purified HLA; details: for DR2w2B2 binding data: unit not given
[1] = test system: HLA-DR molecules (DR1, DR4w4, DR7, DRB5*0101, DRB1*1501, DRB1*1101, DRB1*0802, DRB1*1302); assay: DR supertype cross-reactive binding; set-up: species or system human; details: for No. of DR Alleles Crossbound: Table XXXI; for DR147 Binding / DR147 Cross-binding: number of DR1, DR4w4, DR7 bound; for DR147 Binding: Table XXIX; for DR147 Cross-binding: Table XXVIII; for Broad Binding (5/8): number of the 8 DR alleles bound
DRB1*0701 (DR7) = DRB1*0701 (DR7) (Homo sapiens, UniProt P01903+P01911, A100R/A102G/A103Q/D57E/D86V/E43K/F76Y/K127E/L162R/M171V/P40G/Q125H/Q99D/R33Q/R42Y/R54Q/S133A/S66F/T210M/V115G/Y107V/Y59L/Y89S); assay: HLA class II peptide binding assay, purified HLA; details: unit not given
DRB1*0101 (DR1) = DRB1*0101 (DR1) (Homo sapiens, UniProt P01903+P01911, A100R/D57E/F55L/F60I/F76Y/I96L/L162R/M171V/P40L/Q125E/R42F/V115G/Y59C); assay: HLA class II peptide binding assay, purified HLA; details: unit not given
DRB1*1302 (DR6w19) = DRB1*1302 (DR6w19) (Homo sapiens, UniProt P01903+P01911, A100E/A169T/K41T/L162R/M171V/P40S/Q125H/Q178H/Q39Y/Q99D/R42S/S66N/T262R/V115G/W38E/Y61H); assay: HLA class II peptide binding assay, purified HLA; details: for DR6w19 binding data: unit not given
DRB1*0401 (DR4w4) = DRB1*0401 (DR4w4) (Homo sapiens, UniProt P01903+P01911, A100K/A169T/F76Y/I96L/K127E/L162R/M171V/N62H/P40V/Q125Y/R42H/S133A/S149N/S66Y/V115G/V209L/W38E); assay: HLA class II peptide binding assay, purified HLA; details: unit not given
DRB1*0301 (DR3) = DRB1*0301 (DR3) (Homo sapiens, UniProt P01903+P01911, A100K/A102G/A103R/A169T/F55Y/I96L/K41T/L162R/M171V/P40S/Q125H/Q178H/Q39Y/R42S/S66N/T106N/T262R/W38E/Y61H); assay: HLA class II peptide binding assay, purified HLA; details: unit not given
[2] = Table XIX, DR supermotif peptides
[3] = Table XXa, DR 3a motif peptides

Row | Structure (SMILES) | DR2wB1 binding data (DRB1*1501 (DR2w2β1); unit not given) | DR8w2 binding data (DRB1*0802 (DR8w2); [2]) | DR5w11 binding data (DRB1*1101 (DR5w11); [2]) | DR2w2B2 binding data (DRB5*0101 (DR2w2β2); [2]) | No. of DR Alleles Crossbound [1] | DR147 Binding [1] | DR147 Cross-binding [1] | Broad Binding (5/8) [1] | DR7 binding data (DRB1*0701 (DR7); [2]) | DR1 binding data (DRB1*0101 (DR1); [2]) | DR6w19 binding data (DRB1*1302 (DR6w19); [2]) | DR4w4 binding data (DRB1*0401 (DR4w4); [2]) | DR3 binding data (DRB1*0301 (DR3); [2]) | other results
1 | CC[C@H](C)[C@H](NC(=O)CNC(=O)[C@H](CC(C)C)NC(=O)[C@H](CC(C)C)NC(=O)[C@H](CCCNC(=N)N)NC(=O)[C@@H](N)CO)C(=O)N[C@@H](CS)C(=O)N[C@@H](CC(C)C)C(=O)N[C@H](C(=O)N[C@@H](CO)C(=O)N[C@H](C(=O)N[C@H](C(=O)N[C@@H](CCC(N)=O)C(=O)N[C@@H](CC(C)C)C(=O)N[C@H](C(=O)O)C(C)C)C(C)C)[C@@H](C)O)[C@@H](C)O | 0.0220 | 0.0009 | 0.0140 | −0.0007 | 5 | 3 | 3 | 5 | 0.5600 | 0.3500 | 0.3400 | 0.1200 | 0.0062 | 
2 | CC[C@H](C)[C@H](NC(=O)CNC(=O)[C@H](Cc1ccccc1)NC(=O)[C@@H](NC(=O)[C@@H](NC(=O)CNC(=O)[C@H](CC(C)C)NC(=O)[C@@H](N)C(C)C)C(C)C)C(C)C)C(=O)N[C@@H](CC(C)C)C(=O)N[C@H](C(=O)N[C@@H](CCCCN)C(=O)N[C@@H](CCCNC(=N)N)C(=O)N[C@@H](CCCNC(=N)N)C(=O)N[C@@H](CCC(N)=O)C(=O)N[C@@H](CCC(N)=O)C(=O)O)[C@@H](C)CC | 0.0110 | 0.6400 | 0.4700 | 0.0620 | 7 | 2 | 2 | 7 | 0.0320 | 0.0700 | 0.0150 | 0.0029 | 0.0021 | 
3 | CC(C)C[C@H](NC(=O)[C@H](CC(=O)O)NC(=O)[C@H](CCCNC(=N)N)NC(=O)[C@H](Cc1c[nH]cn1)NC(=O)[C@@H](NC(=O)[C@H](CC(C)C)NC(=O)[C@H](CCCNC(=N)N)NC(=O)[C@@H](N)C(C)C)C(C)C)C(=O)N[C@@H](C)C(=O)N[C@@H](C)C(=O)N[C@@H](CCCNC(=N)N)C(=O)N[C@@H](CC(N)=O)C(=O)N[C@H](C(=O)N[C@@H](CC(C)C)C(=O)N[C@H](C(=O)O)C(C)C)C(C)C | 0.0064 | 0.1000 | 0.2700 | 0.0033 | 4 |  |  |  | 0.0230 | 0.0340 | 0.0430 | 0.0150 | 0.3400 | DR2w2B1 binding data (DRB1*1501 (DR2w2β1); Table XXa, DR 3a motif peptides, unit not given): 0.0064; IC50 (DRB1*0802 (DR8w2); Table XXXI): 0.49 µM; DR8w2 binding data (DRB1*0802 (DR8w2); [3]): 0.1000; IC50 (DRB1*1101 (DR5w11); Table XXXI): 0.074 µM; DR5w11 binding data (DRB1*1101 (DR5w11); [3]): 0.2700; DR2w2B2 binding data (DRB5*0101 (DR2w2β2); [3]): 0.0033; DR7 binding data (DRB1*0701 (DR7); [3]): 0.0230; DR1 binding data (DRB1*0101 (DR1); [3]): 0.0340; IC50 (DRB1*1302 (DR6w19); Table XXXI): 0.081 µM; DR6w19 binding data (DRB1*1302 (DR6w19); [3]): 0.0430; DR4w4 binding data (DRB1*0401 (DR4w4); [3]): 0.0150; DR3 binding data (DRB1*0301 (DR3); [3]): 0.3400
4 | CC[C@H](C)[C@H](NC(=O)CNC(=O)[C@H](CC(=O)O)NC(=O)[C@H](Cc1ccc(O)cc1)NC(=O)[C@@H]1CCCN1C(=O)[C@H](CCCCN)NC(=O)[C@H](C)NC(=O)CNC(=O)[C@H](Cc1ccccc1)NC(=O)[C@@H](NC(=O)[C@H](CCSC)NC(=O)[C@H](CC(C)C)NC(=O)[C@H](CCC(=O)O)NC(=O)[C@H](Cc1c[nH]c2ccccc12)NC(=O)[C@@H](N)C(C)C)[C@@H](C)O)C(=O)O | 0.0990 | 0.0089 | 0.0054 | 0.1000 | 5 | 3 | 3 | 5 | 0.0370 | 0.0870 | 0.0004 | 0.0550 | 0.0010 | IC50 (DRB1*1501 (DR2w2β1); Table XXIX, read-out: DR2w2β1 nM): 0.092 µM; IC50 (DRB1*1101 (DR5w11); Table XXIX, read-out: DR5w11 nM): 3.7 µM; IC50 (DRB5*0101 (DR2w2β2); Table XXIX, read-out: DR2w2β2 nM): 0.2 µM
